Experimental data from patent US7550458B2, “Tricycloundecane compounds useful as modulators of nuclear hormone receptor function” (Bristol-Myers Squibb Company, priority 2005, dated 2009).
pKd: −log10 of the molar value. Like-named read-outs stand apart in the source and are kept apart here.

Columns and labels:
AR [1] = molecular target: T1, AR (Rattus norvegicus, UniProt P15207)
T1 sequence (P15207 1-902): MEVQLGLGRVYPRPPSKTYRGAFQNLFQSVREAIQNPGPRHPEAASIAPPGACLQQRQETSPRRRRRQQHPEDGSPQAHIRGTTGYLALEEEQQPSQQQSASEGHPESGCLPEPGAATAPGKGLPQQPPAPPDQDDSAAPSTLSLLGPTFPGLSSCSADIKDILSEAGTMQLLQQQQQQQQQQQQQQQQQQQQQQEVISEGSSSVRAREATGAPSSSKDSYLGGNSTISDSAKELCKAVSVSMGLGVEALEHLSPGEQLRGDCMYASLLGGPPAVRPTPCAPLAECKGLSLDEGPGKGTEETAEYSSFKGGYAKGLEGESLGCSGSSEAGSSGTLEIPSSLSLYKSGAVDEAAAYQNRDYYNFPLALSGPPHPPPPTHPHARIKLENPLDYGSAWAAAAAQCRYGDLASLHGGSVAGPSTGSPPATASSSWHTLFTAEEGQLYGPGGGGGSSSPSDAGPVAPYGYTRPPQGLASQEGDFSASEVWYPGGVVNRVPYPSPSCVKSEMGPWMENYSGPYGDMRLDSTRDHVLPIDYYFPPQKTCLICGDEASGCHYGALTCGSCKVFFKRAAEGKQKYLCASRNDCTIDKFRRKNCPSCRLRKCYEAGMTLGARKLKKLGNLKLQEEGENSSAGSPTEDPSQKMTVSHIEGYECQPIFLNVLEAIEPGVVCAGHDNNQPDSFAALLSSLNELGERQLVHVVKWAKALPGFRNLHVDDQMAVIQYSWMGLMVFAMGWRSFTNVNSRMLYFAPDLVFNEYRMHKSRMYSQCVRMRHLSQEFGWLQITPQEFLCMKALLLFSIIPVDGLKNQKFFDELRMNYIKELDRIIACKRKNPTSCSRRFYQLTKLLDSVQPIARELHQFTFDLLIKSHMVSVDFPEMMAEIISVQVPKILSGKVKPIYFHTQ

AR [2] = molecular target: T1, AR; details: castrated rats, dosing for 3 days
wild type AR = assay: AR whole cell binding assay, saturation analysis, MDA 453 cells; design: species or system human; details: read-out: Kd for [^3H]-DHT, Scatchard analysis
glucocorticoid receptor = glucocorticoid receptor (Homo sapiens, UniProt P04150); details: at a concentration of ≦10 μM, A549 cells
Protocol: Cells are plated the day before the assay at approximately 40000 cells/well. […] Activity is measured by analysis in a luminometer as compared to control experiments treated with buffer or dexamethasome.

Chain of glucocorticoid receptor (P04150 whole entry): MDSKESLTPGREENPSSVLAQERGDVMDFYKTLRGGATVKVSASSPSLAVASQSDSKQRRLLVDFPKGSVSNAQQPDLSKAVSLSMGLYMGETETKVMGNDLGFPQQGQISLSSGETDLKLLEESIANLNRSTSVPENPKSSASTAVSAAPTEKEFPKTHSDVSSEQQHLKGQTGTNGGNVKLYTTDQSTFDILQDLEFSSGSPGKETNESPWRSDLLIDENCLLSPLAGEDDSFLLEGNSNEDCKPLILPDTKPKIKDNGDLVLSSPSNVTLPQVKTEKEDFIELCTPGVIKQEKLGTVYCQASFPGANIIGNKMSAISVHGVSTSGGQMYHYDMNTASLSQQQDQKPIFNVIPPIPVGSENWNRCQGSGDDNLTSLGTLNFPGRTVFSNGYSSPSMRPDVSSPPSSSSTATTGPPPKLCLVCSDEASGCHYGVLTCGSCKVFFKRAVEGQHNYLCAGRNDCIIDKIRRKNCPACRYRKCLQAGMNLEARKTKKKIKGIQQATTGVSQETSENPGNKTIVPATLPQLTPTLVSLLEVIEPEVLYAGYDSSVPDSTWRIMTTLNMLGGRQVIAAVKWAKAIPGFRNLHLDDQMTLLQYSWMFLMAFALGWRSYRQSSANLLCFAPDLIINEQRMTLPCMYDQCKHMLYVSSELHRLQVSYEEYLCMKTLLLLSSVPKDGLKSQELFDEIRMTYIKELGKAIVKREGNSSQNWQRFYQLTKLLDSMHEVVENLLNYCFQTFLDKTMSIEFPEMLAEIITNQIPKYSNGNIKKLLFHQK

## CCC(=O)O[C@H]1CC[C@H]2[C@@H]3CCC4=CC(=O)CC[C@]4(C)[C@H]3CC[C@]12C [TP, testosterone propionate]
AR [1]; immature castrated rat model
  ED80 of TP: 0.1 mg
AR [1]; immature castrated rats, dosing for 3 days
  EC50 (increase in organ weight): ~0.03 mg
AR [2]
  EC50 (increase in organ weight): ~0.03 mg

## C[C@@H]1C[C@H]2[C@@H]3CCC4=CC(=O)C=C[C@]4(C)[C@@]3(F)[C@@H](O)C[C@]2(C)[C@@]1(O)C(=O)CO [dexamethasone]
Glucocorticoid receptor
  suppression of activity (% inhibition of the reporter system vs buffer control with 10 ng/ml PMA): ~65%
